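Compound exposure: 48 hours, 5 concentrations, 96-well plates. GI50: concentration for 50% inhibition of growth. TGI: total growth inhibition.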
Key:
Test in all cases: NCI-60 cell line screen, 48 h
NCI-H23 lung = system: NCI-H23 lung
IGROV1 ovarian = system: IGROV1 ovarian
HT29 colon = system: HT29 colon
MALME-3M melanoma = system: MALME-3M melanoma
DU-145 prostate = system: DU-145 prostate
MCF7 breast = system: MCF7 breast
MOLT-4 leukemia = system: MOLT-4 leukemia
SK-OV-3 ovarian = system: SK-OV-3 ovarian
OVCAR-4 ovarian = system: OVCAR-4 ovarian
SN12C renal = system: SN12C renal
A549 NSCLC = system: A549 NSCLC
ACHN renal = system: ACHN renal
T-47D breast = system: T-47D breast
SNB-75 CNS = system: SNB-75 CNS
K-562 leukemia = system: K-562 leukemia
PC-3 prostate = system: PC-3 prostate
RPMI-8226 leukemia = system: RPMI-8226 leukemia
OVCAR-3 ovarian = system: OVCAR-3 ovarian
TK-10 renal = system: TK-10 renal
SK-MEL-28 melanoma = system: SK-MEL-28 melanoma
CCRF-CEM leukemia = system: CCRF-CEM leukemia
M14 melanoma = system: M14 melanoma
786-0 renal = system: 786-0 renal
CAKI-1 renal = system: CAKI-1 renal
SNB-19 CNS = system: SNB-19 CNS
NCI-H460 lung = system: NCI-H460 lung
SF-295 CNS = system: SF-295 CNS
UACC-62 melanoma = system: UACC-62 melanoma
HCT-15 colon = system: HCT-15 colon
KM12 colon = system: KM12 colon
UO-31 renal = system: UO-31 renal
NCI-H226 lung = system: NCI-H226 lung
NCI-H522 lung = system: NCI-H522 lung
U251 CNS = system: U251 CNS
LOX IMVI melanoma = system: LOX IMVI melanoma
BT-549 breast = system: BT-549 breast
HL-60(TB) leukemia = system: HL-60(TB) leukemia
HS 578T breast = system: HS 578T breast
EKVX NSCLC = system: EKVX NSCLC
SK-MEL-5 melanoma = system: SK-MEL-5 melanoma
MDA-MB-231 breast = system: MDA-MB-231 breast
MDA-MB-435 = system: MDA-MB-435
SR leukemia = system: SR leukemia
OVCAR-5 ovarian = system: OVCAR-5 ovarian
SK-MEL-2 melanoma = system: SK-MEL-2 melanoma
NCI/ADR-RES ovarian = system: NCI/ADR-RES ovarian
RXF 393 renal = system: RXF 393 renal
UACC-257 melanoma = system: UACC-257 melanoma
SF-539 CNS = system: SF-539 CNS
A498 renal = system: A498 renal
SF-268 CNS = system: SF-268 CNS
SW-620 colon = system: SW-620 colon
OVCAR-8 ovarian = system: OVCAR-8 ovarian
HCT-116 colon = system: HCT-116 colon
HOP-92 NSCLC = system: HOP-92 NSCLC
HCC-2998 colon = system: HCC-2998 colon
HOP-62 NSCLC = system: HOP-62 NSCLC

## CCOC(=O)c1ccc2c(c1)c1c(C)c3cnccc3c(C)c1n2C
NCI-H23 lung
  GI50: 100 nM
  TGI: 417 nM
IGROV1 ovarian
  GI50: 53.9 nM
  TGI: 357 nM
HT29 colon
  GI50: 56.1 nM
  TGI: 1410 nM
MALME-3M melanoma
  GI50: 131 nM
  TGI: 407 nM
DU-145 prostate
  GI50: 108 nM
  TGI: 718 nM
MCF7 breast
  GI50: 205 nM
  TGI: 1030 nM
MOLT-4 leukemia
  GI50: 59.4 nM
  TGI: 1660 nM
SK-OV-3 ovarian
  GI50: 216 nM
  TGI: 713 nM
OVCAR-4 ovarian
  GI50: 217 nM
  TGI: 697 nM
SN12C renal
  GI50: 78.3 nM
  TGI: 865 nM
A549 NSCLC
  GI50: 147 nM
  TGI: 1020 nM
ACHN renal
  GI50: 38.5 nM
  TGI: 328 nM
T-47D breast
  GI50: 382 nM
  TGI: 15800 nM
SNB-75 CNS
  GI50: 141 nM
  TGI: 703 nM
K-562 leukemia
  GI50: 79.2 nM
  TGI: 1320 nM
PC-3 prostate
  GI50: 137 nM
  TGI: 821 nM
RPMI-8226 leukemia
  GI50: 95.3 nM
  TGI: 1800 nM
OVCAR-3 ovarian
  GI50: 119 nM
  TGI: 470 nM
TK-10 renal
  GI50: 334 nM
  TGI: 1310 nM
SK-MEL-28 melanoma
  GI50: 183 nM
  TGI: 463 nM
CCRF-CEM leukemia
  GI50: 216 nM
  TGI: 2940 nM
M14 melanoma
  GI50: 151 nM
  TGI: 383 nM
786-0 renal
  GI50: 141 nM
  TGI: 1110 nM
CAKI-1 renal
  GI50: 47.5 nM
  TGI: 859 nM
SNB-19 CNS
  GI50: 107 nM
  TGI: 1330 nM
NCI-H460 lung
  GI50: 265 nM
  TGI: 1070 nM
SF-295 CNS
  GI50: 128 nM
  TGI: 765 nM
UACC-62 melanoma
  GI50: 98.4 nM
  TGI: 264 nM
HCT-15 colon
  GI50: 57.1 nM
  TGI: 921 nM
KM12 colon
  GI50: 128 nM
  TGI: 1030 nM
UO-31 renal
  GI50: 53.6 nM
  TGI: 728 nM
NCI-H226 lung
  GI50: 91.1 nM
  TGI: 382 nM
NCI-H522 lung
  GI50: 88.1 nM
  TGI: 318 nM
U251 CNS
  GI50: 99.2 nM
  TGI: 830 nM
LOX IMVI melanoma
  GI50: 55.8 nM
  TGI: 310 nM
BT-549 breast
  GI50: 441 nM
  TGI: 1880 nM
HL-60(TB) leukemia
  GI50: 324 nM
  TGI: 1490 nM
HS 578T breast
  GI50: 204 nM
  TGI: 900 nM
EKVX NSCLC
  GI50: 193 nM
  TGI: 690 nM
SK-MEL-5 melanoma
  GI50: 192 nM
  TGI: 651 nM
MDA-MB-231 breast
  GI50: 160 nM
  TGI: 892 nM
MDA-MB-435
  GI50: 142 nM
  TGI: 501 nM
SR leukemia
  GI50: 44.7 nM
OVCAR-5 ovarian
  GI50: 216 nM
  TGI: 912 nM
SK-MEL-2 melanoma
  GI50: 190 nM
  TGI: 677 nM
NCI/ADR-RES ovarian
  GI50: 68.2 nM
  TGI: 600 nM
RXF 393 renal
  GI50: 120 nM
  TGI: 390 nM
UACC-257 melanoma
  GI50: 181 nM
  TGI: 651 nM
SF-539 CNS
  GI50: 173 nM
  TGI: 1070 nM
A498 renal
  GI50: 162 nM
  TGI: 376 nM
SF-268 CNS
  GI50: 98.8 nM
  TGI: 823 nM
SW-620 colon
  GI50: 48.2 nM
  TGI: 839 nM
OVCAR-8 ovarian
  GI50: 116 nM
  TGI: 2990 nM
HCT-116 colon
  GI50: 37.8 nM
  TGI: 1030 nM
HOP-92 NSCLC
  GI50: 143 nM
  TGI: 813 nM
HCC-2998 colon
  GI50: 257 nM
  TGI: 1290 nM
HOP-62 NSCLC
  GI50: 75.5 nM
  TGI: 1070 nM

Source: PubChem BioAssay (NCI)
